In brackets after ≈: the same amount, converted by molar mass.
Columns and labels:
[1] = test system: Staphylococcus aureus haemolyticus; assay: minimum inhibitory concentration, gradient plate method, Staphylococcus aureus haemolyticus; assay type: cell-based; details: 72 h, gradient 0-100 μg/ml, 10% aqueous dimethyl formamide, evaluated three days after inoculation, read-out: Minimum Inhibitory Concentration, Bacteria, St
Text: (§1) Test evaluation was made three days after inoculation.

Streptococcus faecalis = assay: minimum inhibitory concentration, gradient plate method, Streptococcus faecalis; assay type: cell-based; set-up: key to partial resistancy, Bacteria, Str: partial resistancy observed; details: for MIC: Enterococcus faecalis, 72 h, gradient 0-100 μg/ml, 10% aqueous dimethyl formamide, evaluated three days after inoculation, read-out: Minimum Inhibitory Concentration, Bacteria, Str
Text: as §1

[2] = test system: Trichophyton mentagrophytes; assay: minimum inhibitory concentration, gradient plate method, Trichophyton mentagrophytes; assay type: cell-based; details: 72 h, gradient 0-100 μg/ml, 10% aqueous dimethyl formamide, evaluated three days after inoculation, read-out: Minimum Inhibitory Concentration, Fungi, Tri
Text: as §1

Aspergillus niger = assay: minimum inhibitory concentration, gradient plate method, Aspergillus niger; assay type: cell-based; set-up: key to partial resistancy, Fungi, Asp: partial resistancy observed; details: for MIC: 72 h, gradient 0-100 μg/ml, 10% aqueous dimethyl formamide, evaluated three days after inoculation, read-out: Minimum Inhibitory Concentration, Fungi, Asp
Text: as §1

[3] = oral toxicity LD50 per os, mice; details: mouse, in vivo
Text: (§2) The results of these tests are summarized in the following Table I together with the oral toxicity values (LD50 per os; mice, values in mg per kg of body weight) determined in the conventional manner.

mice = details: oral, value as reported by Thienpont et al, Arzneimittelforschung 1975, 25, 224; cited from earlier work
in vivo = details: mouse, po
Text: as §2

Row | Compound | MIC [1] [µg/mL] | partial resistancy, Bacteria, Str (Streptococcus faecalis) | MIC [2] [µg/mL] | MIC (Aspergillus niger) [µg/mL] | LD50 [3] [mg/kg] | MIC (Streptococcus faecalis) [µg/mL] | Toxicity LD50 per os (mice) [mg/kg] | partial resistancy, Fungi, Asp (Aspergillus niger) | LD50 (in vivo) [mg/kg]
1 | Clc1ccc(OCCCCOC(Cn2ccnc2)c2ccc(Cl)cc2Cl)cc1.O=[N+]([O-])O (stereo not drawn) [Example 35, 1-{β-[4-(p-chlorophenoxy)-butoxy]-2,4-dichlorophenethyl}-imidazole nitrate] | 10 | r | < 10 | < 10 | > 4000 |  |  |  | 
2 | Clc1ccc(COC(Cn2ccnc2)c2ccc(Cl)cc2Cl)cc1 (stereo not drawn) [ECONAZOLE, reference compound] | < 10 |  | < 10 | < 10 |  | < 10 | 462.7 |  | 
3 | Clc1ccc(SCCCOC(Cn2ccnc2)c2ccc(Cl)cc2Cl)cc1.O=[N+]([O-])O (stereo not drawn) [Example 31, 1-{β-[3-(p-chlorophenylthio)-propoxy]-2,4-dichlorophenethyl}-imidazole nitrate] | < 10 |  | < 10 | < 10 | 4300 | < 10 |  |  | 
4 | Clc1ccc(C(Cn2ccnc2)OCSc2ccc(Cl)c(Cl)c2)c(Cl)c1 (stereo not drawn) [Example 15, 1-β-(3,4-dichlorophenylthiomethoxy-2,4-dichlorophenethyl)-imidazole nitrate] | < 10 |  | < 10 |  |  | < 10 |  | r | ~7500
5 | Clc1ccc(SCCCSC(Cn2ccnc2)c2ccc(Cl)cc2Cl)cc1 (stereo not drawn) [Example 34, 1-{β-[3-(p-chlorophenylthiopropylthio)]-2,4-dichlorophenethyl}-imidazole nitrate] | 10 | r | < 10 |  |  |  |  | r | > 3000
6 | Cc1ccc(SCOC(Cn2ccnc2)c2ccc(Cl)cc2Cl)cc1 (stereo not drawn) [Example 14, 1-β-(4-methylphenylthiomethoxy-2,4-dichlorophenethyl)-imidazole nitrate] | < 10 |  | < 10 | < 10 |  | < 10 |  |  | > 3000
7 | Clc1ccc(SCCCCOC(Cn2ccnc2)c2ccc(Cl)cc2Cl)cc1 (stereo not drawn) [Example 36, 1-{β-[4-(p-chlorophenylthio)-butoxy]-2,4-dichlorophenethyl}-imidazolenitrate] | < 10 | r | < 10 | 35 (≈ 76.8 µM) |  |  |  |  | > 3000
8 | Clc1ccc(OCCOCCOC(Cn2ccnc2)c2ccc(Cl)cc2Cl)cc1 (stereo not drawn) [Example 17, 1-{β-[2-(p-chlorophenoxyethoxy)-ethoxy-2,4-dichlorophenethyl]}-imidazole nitrate] | < 10 |  | < 10 | 10 |  | 10 |  |  | 2500
9 | Clc1ccc(C(Cn2ccnc2)OCOc2ccccc2Cl)c(Cl)c1 (stereo not drawn) [Example 3, 1-β-(2-chlorophenoxymethoxy-2,4-dichlorophenethyl)-imidazole nitrate] | < 10 |  | < 10 | < 10 |  | 15 |  |  | > 3000
10 | Cc1cc(SCOC(Cn2ccnc2)c2ccc(Cl)cc2Cl)ccc1Br (stereo not drawn) [Example 16, 1-β-(4-bromo-3-methylphenylthiomethoxy-2,4-dichlorophenethyl)-imidazole nitrate] | < 10 |  | < 10 | < 10 |  | 10 |  |  | > 3000
11 | Clc1ccc(C(Cn2ccnc2)SCCCOc2ccccc2)c(Cl)c1 (stereo not drawn) [Example 32, 1-[β-(phenoxypropylthio)-2,4-dichlorophenethyl]-imidazole] | < 10 | r | < 10 | < 10 |  |  |  |  | > 2000
12 | CSCOC(Cn1ccnc1)c1ccc(Cc2ccc(Cl)cc2)cc1 (stereo not drawn) [Example 19, 1-[β-methylthiomethoxy-4-(4'-chlorobenzyl)-phenethyl]-imidazole nitrate] | 10 |  | < 10 | 10 |  | 25 |  |  | 970
